For one assay, the system named is A549. The assay can be described thus: In vitro cytotoxicity against human A549 (lung cancer) cell line. The format is functional, cell-based.
Another assay relates to Col2. As to the kind of experiment: In vitro cytotoxicity against human Col2 (colon cancer) cell line. The assay is classed as functional, cell-based.
Assay [1] deals with T1, DNA topoisomerase II (Homo sapiens, UniProt P11388+Q02880). The assay can be described thus: In vitro inhibition of human DNA topoisomerase II activity. The assay is classed as protein assay. Particulars: concentration not given here.
In assay [2] the target is T2, DNA topoisomerase 1 (Homo sapiens) (UniProt P11387).
T2 sequence (whole entry): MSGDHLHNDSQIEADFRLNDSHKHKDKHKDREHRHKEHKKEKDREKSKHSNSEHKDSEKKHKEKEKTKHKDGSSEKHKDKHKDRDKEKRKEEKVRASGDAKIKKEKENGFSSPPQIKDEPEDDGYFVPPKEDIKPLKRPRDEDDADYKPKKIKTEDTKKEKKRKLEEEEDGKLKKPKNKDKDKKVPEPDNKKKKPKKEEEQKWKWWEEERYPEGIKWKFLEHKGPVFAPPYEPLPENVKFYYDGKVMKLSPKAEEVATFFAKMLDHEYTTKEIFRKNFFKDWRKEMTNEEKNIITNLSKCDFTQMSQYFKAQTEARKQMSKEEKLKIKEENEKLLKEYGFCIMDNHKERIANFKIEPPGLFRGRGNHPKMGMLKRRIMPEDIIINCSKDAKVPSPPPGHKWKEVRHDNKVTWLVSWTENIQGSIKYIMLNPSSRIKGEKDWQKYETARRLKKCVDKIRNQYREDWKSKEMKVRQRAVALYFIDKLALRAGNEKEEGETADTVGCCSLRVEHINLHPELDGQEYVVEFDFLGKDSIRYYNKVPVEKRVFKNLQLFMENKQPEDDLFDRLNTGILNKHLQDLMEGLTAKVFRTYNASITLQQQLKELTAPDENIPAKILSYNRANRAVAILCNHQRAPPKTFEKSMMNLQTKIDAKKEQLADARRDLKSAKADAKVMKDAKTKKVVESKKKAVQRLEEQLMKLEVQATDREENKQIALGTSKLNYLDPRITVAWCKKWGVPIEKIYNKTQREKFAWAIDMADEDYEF
The assay can be described thus: In vitro inhibition of human DNA topoisomerase I activity. Particulars: concentration not given here. The arrangement: concentration or dose not given beside the values.

The next assay deals with SNU-638. The assay can be described thus: In vitro cytotoxicity against human SNU-638 (stomach cancer) cell line. The format is functional, cell-based.
In assay [3] the target is T1, DNA topoisomerase II. The assay can be described thus: Inhibitory activity against DNA topoisomerase II. The assay is classed as protein assay.
The target in assay [4] is T1, DNA topoisomerase II. As to the kind of experiment: Inhibitory activity against topo II-mediated decatenation of DNA. The format is protein assay.

The record followed here is ChEMBL document CHEMBL1147454, “6-Arylamino-7-chloro-quinazoline-5,8-diones as novel cytotoxic and DNA topoisomerase inhibitory agents” (Bioorg Med Chem Lett, 2004).

As a reminder, the IC50 is the concentration needed to halve the response being measured. For orientation: inhibition means the percentage by which the read-out fell short of the control. In the case of `CCc1ccccc1/N=C1/C(=O)c2cncnc2C(O)=C1Cl`, the IC50 was 4.65 µM in the assay with A549, 4.37 µM with Col2 and 700 nM in the assay on SNU-638. Also, the inhibition against DNA topoisomerase II [1] worked out at 82%; in assay [2], 20%.

`Cc1ccc(NC2=C(Cl)C(=O)c3ncncc3C2=O)cc1C`: the results for the IC50 with A549, in the assay on Col2 and in the assay with SNU-638 were 4.49 µM, 3.73 µM and 990 nM, respectively. Moreover, the results for the inhibition (against DNA topoisomerase II [1]; in assay [2]) were 20% and 100%, respectively.

Take `Cc1c2ccncc2c(C)c2c1[nH]c1ccccc12` [ELLIPTECINE]: the results for the IC50 in the assay on A549, in the assay with Col2 and in the assay with SNU-638 were 1.22 µM, 1.22 µM and 2000 nM, respectively.

Take `O=C1C(Nc2cccc(Br)c2)=C(Cl)C(=O)c2ncncc21`: the values for the IC50 with A549, in the assay on Col2 and in the assay on SNU-638 were 3.68 µM, 5.07 µM and 1180 nM, respectively. Moreover, the figures for the inhibition (at DNA topoisomerase II [1]; in assay [2]) were 2% and 9%, respectively.

For the compound `Cc1ccc(/N=C2/C(=O)c3cncnc3C(O)=C2Cl)c(Br)c1`, the IC50 in the assay on A549 was 4.07 µM; with Col2, 3.04 µM; against DNA topoisomerase II [3], 40.5 µM; in the assay on SNU-638 it was 890 nM. Also, the inhibition (on DNA topoisomerase II [1]; in assay [2]) was 100% throughout.

Turning to `COc1cc([C@@H]2c3cc4c(cc3[C@@H](O[C@@H]3O[C@@H]5CO[C@@H](C)O[C@H]5[C@H](O)[C@H]3O)[C@H]3COC(=O)[C@H]23)OCO4)cc(OC)c1O`, the inhibition against DNA topoisomerase II [1] was determined as 48%.

On to `O=C1C(Nc2ccccc2Br)=C(Cl)C(=O)c2ncncc21`, for which the IC50 amounted to 4.47 µM with A549, 3.4 µM with Col2, 17.3 µM against DNA topoisomerase II [4] and 990 nM with SNU-638. The values for the inhibition (on DNA topoisomerase II [1]; in assay [2]) were 99% and 89%, respectively.

As for `O=C1C(Nc2ccccc2)=C(Cl)C(=O)c2ncncc21`, the IC50 was 3.54 µM in the assay on A549, 1.19 µM with Col2 and 770 nM in the assay with SNU-638. The results for the inhibition (on DNA topoisomerase II [1]; in assay [2]) were 41% and 27%, respectively.

As to `Cc1cccc(NC2=C(Cl)C(=O)c3ncncc3C2=O)c1`, the IC50 in the assay on A549 turned out to be 5.17 µM; in the assay on Col2, 5.67 µM; in the assay with SNU-638, 970 nM. In addition, the inhibition at DNA topoisomerase II [1] worked out at 2%; in assay [2], 96%.

`Cc1ccccc1/N=C1/C(=O)c2cncnc2C(O)=C1Cl`: the IC50 turned out to be 3.6 µM with A549, 3.77 µM in the assay on Col2 and 900 nM in the assay on SNU-638. Also, the inhibition against DNA topoisomerase II [1] is 6%; in assay [2], 29%.

For `CCc1ccc(NC2=C(Cl)C(=O)c3ncncc3C2=O)cc1`, the IC50 with A549 came out at 3.44 µM; in the assay on Col2 it was 0.7 µM; in the assay with SNU-638, 640 nM. Also, the inhibition turned out to be 4% on DNA topoisomerase II [1] and 88% in assay [2].

On to `Cc1ccc(NC2=C(Cl)C(=O)c3ncncc3C2=O)cc1`, for which the IC50 with A549 is 5.81 µM; in the assay on Col2 it was 0.87 µM; in the assay on SNU-638, 730 nM. The figures for the inhibition (against DNA topoisomerase II [1]; in assay [2]) were 1% and 12%, respectively.

For `O=C1C(Nc2ccc3c(c2)OCO3)=C(Cl)C(=O)c2ncncc21`, the IC50 in the assay on A549 is 1.67 µM; with Col2, 0.88 µM; in the assay with SNU-638, 550 nM. Also, the inhibition against DNA topoisomerase II [1] came out at 2%; in assay [2], 27%.

Consider `O=C1C(Nc2cccc(Cl)c2)=C(Cl)C(=O)c2ncncc21`, for which the results for the IC50 in the assay on A549, in the assay with Col2 and with SNU-638 were 4.22 µM, 3.55 µM and 810 nM, respectively. In addition, the inhibition against DNA topoisomerase II [1] came out at 2%; in assay [2] it was 12%.

Regarding `CCOc1ccccc1/N=C1/C(=O)c2cncnc2C(O)=C1Cl`, the IC50 with A549 turned out to be 3.28 µM; in the assay with Col2 it was 0.73 µM; with SNU-638, 690 nM. Moreover, the figures for the inhibition (against DNA topoisomerase II [1]; in assay [2]) were 1% and 9%, respectively.

On to `COc1cccc2c1C(=O)c1c(O)c3c(c(O)c1C2=O)C[C@@](O)(C(=O)CO)C[C@@H]3O[C@H]1C[C@H](N)[C@H](O)[C@H](C)O1` [DOXORUBICIN], for which the IC50 amounted to 0.3 µM with A549, 0.52 µM in the assay with Col2 and 690 nM with SNU-638.

`O=C1C(Nc2ccc(Br)cc2)=C(Cl)C(=O)c2ncncc21`: the IC50 in the assay on A549 turned out to be 4.31 µM; in the assay with Col2 it was 3.02 µM; against DNA topoisomerase II [4] it was 15.1 µM; in the assay with SNU-638, 690 nM. Further, the inhibition on DNA topoisomerase II [1] stood at 94%; in assay [2], 58%.

Regarding `COc1ccc(/N=C2/C(=O)c3cncnc3C(O)=C2Cl)c(OC)c1`, the IC50 came out at 2.02 µM with A549, 1.07 µM in the assay on Col2 and 610 nM with SNU-638. The results for the inhibition (on DNA topoisomerase II [1]; in assay [2]) were 20% and 35%, respectively.
